Source: PubChem BioAssay (NCI)
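Assay format: 96-well plates, 48-hour exposure. TGI marks complete inhibition of growth.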

Assays:
Test in all cases: inhibition of tumour cell growth, NCI panel, 48 h
[1] = system: A549 NSCLC
[2] = system: ACHN renal
[3] = system: CAKI-1 renal
[4] = system: HCT-15 colon
[5] = system: LOX IMVI melanoma
[6] = system: NCI-H460 lung
[7] = system: NCI-H522 lung
[8] = system: OVCAR-4 ovarian
[9] = system: U251 CNS
[10] = system: UO-31 renal
[11] = system: SF-295 CNS

Structure (SMILES) | TGI [1] [µM] | TGI [2] [µM] | TGI [3] [µM] | TGI [4] [µM] | TGI [5] [µM] | TGI [6] [µM] | TGI [7] [µM] | TGI [8] [µM] | TGI [9] [µM] | TGI [10] [µM] | TGI [11] [µM]
O=C1CSC2(CC(/C=C/c3ccccc3[N+](=O)[O-])=NN2c2cccc(S(=O)(=O)O)c2)N1c1nc2ccccc2s1 (configuration not stated) | 52.9 | 44.2 | > 75 | 35 | 34.5 | 52.7 | 22.1 | 35.3 | 33.6 | 25.1 | 
O=C(O)Cc1ccc(-n2nnc3c(=O)[nH][nH]c(=O)c32)cc1 | > 100 | > 100 | > 100 | > 100 | > 100 | > 100 |  | > 100 | > 100 | > 100 | > 100
COc1ccc(/C=C2\NC(=S)N(CN3CCOCC3)C2=O)cc1 | > 100 | > 100 |  | > 100 | > 100 |  |  | > 100 | > 100 | > 100 | > 100
COC(=O)CCC(=O)c1ccc2c(c1)CC1(Cc3ccccc3C1)C2 | > 100 | > 100 |  |  | > 100 |  | > 100 | > 100 | > 100 | 80.3 | > 100
O=[N+]([O-])c1cnccc1-n1nnc2ccccc21 | > 90.1 |  |  | 66.1 | 32.8 | > 87 | 38.5 | > 60.5 | > 81.8 | > 86.2 | > 74.7
CN1CCN(C(=S)N(C(=O)c2ccc(Cl)cc2)C2CCCCC2)CC1 | > 100 | > 100 |  | > 100 | > 100 | > 100 | > 100 | > 100 | > 100 | > 100 | > 100
NCCCCNCCCNC(=O)c1csc(-c2nc(CCN)sc2Cl)n1 | > 100 | > 100 |  | > 100 |  | > 100 |  |  | > 100 | > 100 | > 100
CCCCCCCCC[C@@H]1C[C@H](O)[C@H](Cc2ccccc2)N1C(=O)OC(C)(C)C | 32.6 | 30.8 | 38.2 | 33.9 |  |  | 30 | 33 | 30.2 | 27.4 | 30.1
ClC1(Cl)C2CCOC21n1cnc2ccccc21 (configuration not stated) | > 100 |  | > 100 | > 100 | > 100 |  | > 100 | > 100 | > 100 | > 100 | > 100
C=C(C)[C@H]1C=C[C@@H](OC(C)=O)[C@@]2(COC(C)=O)[C@H](OC(=O)CCC)[C@H]3[C@@H](OC(C)=O)[C@@H](C)C[C@]3(O)C(=O)[C@@](C)(OC(C)=O)[C@H]12 | > 100 | > 100 | > 100 | > 100 | > 100 | > 100 | > 100 | > 100 | > 100 | > 100 | 
CCN(CC)C(=O)N1CN(c2ccccc2)C2(CCN(CCCC3(c4ccc(F)cc4)OCCO3)CC2)C1=O | > 100 |  | > 100 | 32.3 | 26.2 |  | 30.2 | > 100 | 30.2 | 35.9 | 41.3
COC(=O)Cc1c(-c2c(CC(=O)OC)c3ccccc3n2C2OC(COC3OC(COC(C)=O)C(OC(C)=O)C(OC(C)=O)C3OC(C)=O)C(O)C(O)C2O)[nH]c2ccccc12 (configuration not stated) | > 100 | > 100 | > 100 | > 100 | > 100 | > 100 |  |  | > 100 | > 100 | > 100
COc1cc(C2C(Cl)C(=O)N2NC(=O)c2ccccc2O)cc(OC)c1OC (configuration not stated) | > 10 | > 10 |  |  | > 10 | > 10 | 8.21 | > 10 | > 10 | > 10 | 8.43
O=C(CCCN1CCC(Nc2ccc(F)cc2)(c2nnnn2C2CCCCC2)CC1)c1ccc(F)cc1 | 31.6 | 28.6 |  | 42.4 | > 100 | > 100 | 29.8 | 25.5 | 29.2 | 28.4 | 40.9
O=C(CN1CCOCC1)c1ccc2c(c1)oc(=O)n2CCN1CCCCC1 |  | > 100 | > 100 | > 100 | > 100 | > 100 |  |  | > 100 | > 100 | > 100
CC(C)N=C(NC#N)NS(=O)(=O)c1cnccc1NC1CCCCCCC1 | > 100 | > 100 | > 100 | > 100 |  |  | > 100 | > 100 | > 100 | > 100 | > 100
COC1=C2C[C@](OC)(C#CC=CC#CC2O)CC1(C)C (some centres not stated) | > 100 | > 100 | > 100 | > 100 | > 100 | > 100 | > 100 |  | > 100 | 80.3 | > 100
C[C@H](N)C(=O)Nc1ccc(-c2nc3ccccc3s2)cc1Cl | 27.6 | 29 | 23.2 | 62.4 | > 100 | 26.2 | 46 |  | 29.1 | 22.9 | 33.9
CCOC(=O)CCNC(=O)c1cc(C)cc2c1Oc1c(cc(C)cc1C(=O)NCCC(=O)OCC)S2 | > 100 | > 100 | > 100 | > 100 | > 100 |  | > 100 | > 100 | > 100 | > 100 | > 100
Cc1cc(NS(=O)(=O)c2ccc(N=Nc3c(Nc4ccccc4)nn(-c4ccc(S(=O)(=O)Nc5ccncn5)cc4)c3C)cc2)no1 | > 100 | > 100 | > 100 | > 100 | > 100 |  | > 100 | > 100 | > 100 | > 100 | > 100
COc1ccc(-c2nc3ccccc3c(=O)[nH]2)cc1OC | > 100 |  | > 100 | > 100 |  | > 100 |  | > 100 | 80.5 | > 100 | > 100
